Results taken from patent US8653146B2, “Method for treating Th17 inflammatory disease through inhibition of vascular endothelial growth factor receptors and pharmaceutical composition therefor” (Postech Academy-Industry Foundation, priority 2009, dated 2014).

Assays:
Type in all cases: in vivo, C57BL/6 mice
[1] = test system: Th1- and Th17-mediated immune responses; test: Overall conclusion on lung inflammation and Th1/Th17 immune responses in asthma animal models
Method: VEGFR inhibitors were assayed for inhibitory activity in asthma animal models suffering from Th17-mediated inflammation.
(§1) To construct asthma animal models, C57BL/6 (female, 6 weeks old) mice were divided into groups, each consisting of five mice and sensitized with 75 μg of ovalbumn (OVA) as an allergen and 10 μg of an endotoxin (lipopolysaccharide, LPS) as an adjuvant via an intranasal route on Day 0, 1, 2 and 7. Some mice in experiment groups were intraperitoneally injected with SU5416 (purchased from Sigma) at a dose of 1 mg/kg or 10 mg/kg, or anti-Flk-1 (purchased from R&D systems) at a dose of 0.1, 1 or 10 μg 30 min before the intranasal administration of OVA and LPS. On days 14, 15, 21 and 22, OVA (50 μg) was intranasally administered to the animals after anesthesia.
(§2) The mice were examined for pulmonary inflammation 6 hours (day 22) and 48 hours (day 24) after the last OVA administration. In this regard, the mice were anesthetized by intraperitoneal injection of a mixture of ketamin and xylazine and allowed to undergo thoracotomy to expose the trachea into which a catheter was then inserted, followed by ligation. The airway was washed by injecting 1 mL of sterile saline twice to obtain bronchoalveolar lavage (BAL) fluid. For the analysis of T lymphocytes in pulmonary tissues, cells were extracted from the local lymph nodes of the lung excised.

[2] = test system: gamma interferon, IL-17 and IL-6 in BAL fluid; test: Cytokine levels (gamma interferon, IL-17, IL-6) in BAL fluid of OVA/LPS asthma animal models by ELISA
Method: as §1
as §2, with “For the analysis of T lymphocytes in pulmonary tissues, cells were extracted from the local lymph nodes of the lung excised.” left out
(§3) The BAL fluid was centrifuged at 4° C. at 3000 rpm for 10 min and the cell pellet thus formed was suspended in PBS (phosphate buffered saline). […] In a 1000× magnified sight under an optical microscope, 300 or more inflammatory cells were observed and classified into macrophages, lymphocytes, neutrophils, and eosinophils which were then counted. In addition, levels of gamma interferon, responsible for Th1 inflammatory response, and IL-17 and IL-6, both responsible for Th17 inflammatory response, in the BAL fluid were quantified by ELISA. […]
Mice in the experimental groups were intraperitoneally injected with 0.1, 1.0 and 10 μg of a monoclonal antibody against VEGFR-2 (anti-Flk-1, R&D Systems) while mice in the control group were intraperitoneally injected with PBS. […] BAL fluid obtained 24 hours after the sensitization (day 1) was quantitatively analyzed for inflammatory cell and IL-6 levels and the results are shown in FIG. 13.

[3] = test system: inflammatory cells in BAL fluid; test: Inflammatory cell count in BAL fluid of OVA/LPS-sensitized asthma animal models; conditions: SU5416 1 mg/kg or 10 mg/kg i.p. 30 min before OVA/LPS sensitization (days 0, 1, 2, 7); 48 hours after last OVA injection (day 24); FIG. 9
Method: as §1
The mice were examined for pulmonary inflammation 6 hours (day 22) and 48 hours (day 24) after the last OVA administration. […]
as §3

[4] = test system: immune cells isolated from local lymph nodes; test: Cytokine secretion by local lymph node immune cells in response to allergen (OVA) stimulus, ELISA; conditions: SU5416 upon sensitization; six hours after three OVA challenges (day 21); FIGS. 10b and 10c
Method: as §1, with “On days 14, 15, 21 and 22, OVA (50 μg) was intranasally administered to the animals after anesthesia.” left out
as §2, with “In” for “The mice were examined for pulmonary inflammation 6 hours (day 22) and 48 hours (day 24) after the last OVA administration. In”
The cells obtained from the lymph nodes were incubated for 72 hours in RPMI (Gibco) supplemented with 100 μg/ml OVA, 10% FBS, and an antibiotic before respective cytokines responsible for Th1-, Th17- and Th2-mediated inflammatory responses were quantified using ELISA. […]

[5] = SU5416 upon sensitization, six hours after three rounds of OVA challenge (day 21), FIG. 10a

Cc1cc(C)c(/C=C2\C(=O)Nc3ccccc32)[nH]1 [SU5416, Semaxanib] was tested. Which “inflammation in the lung” value ([1]; summary of Examples 1 and 2) did it give?
The value was “excellently suppress inflammation in the lung”.

And the “Th1- and Th17-mediated immune responses” value ([1]; summary of Examples 1 and 2, immunological perspective)?
Its value is “suppressive of Th1- and Th17-mediated immune responses”.

And the “IL-6 level in BAL fluid” value ([2]; SU5416 10 mg/kg, 6 hours after three rounds of sensitization with OVA and LPS, vs OVA/LPS_sham, FIG. 11)?
Its value is “lower amounts of IL-6 than did the control”.

And the “level of IL-17 in BAL fluid” value [2, 5]?
The value was “significantly decrease”.

What about the “level of gamma interferon in BAL fluid” value [2, 5] of the same molecule?
Its value is “significantly decrease”.

And the “inflammatory cell count in BAL fluid” value [3]?
Its value is “reduced in a dose-dependent manner”.

And the “IL-17 secreted by local lymph node immune cells in response to allergen stimulus” value [4]?
Its value is “significantly decreased level”.

And the “gamma interferon secreted by local lymph node immune cells in response to allergen stimulus” value [4]?
The value was “significantly decreased level”.
